# US8912176B2 (Evotec AG, priority 2009, dated 2014)
# pIC50: −log10 of the molar value.
# Molecular target: human H3 receptor (Homo sapiens, UniProt Q9Y5N1)
# Assay: cAMP quantification assay for human H3 receptor (DiscoveRx cAMP XS+)
# Sequence of human H3 receptor (Q9Y5N1 whole entry): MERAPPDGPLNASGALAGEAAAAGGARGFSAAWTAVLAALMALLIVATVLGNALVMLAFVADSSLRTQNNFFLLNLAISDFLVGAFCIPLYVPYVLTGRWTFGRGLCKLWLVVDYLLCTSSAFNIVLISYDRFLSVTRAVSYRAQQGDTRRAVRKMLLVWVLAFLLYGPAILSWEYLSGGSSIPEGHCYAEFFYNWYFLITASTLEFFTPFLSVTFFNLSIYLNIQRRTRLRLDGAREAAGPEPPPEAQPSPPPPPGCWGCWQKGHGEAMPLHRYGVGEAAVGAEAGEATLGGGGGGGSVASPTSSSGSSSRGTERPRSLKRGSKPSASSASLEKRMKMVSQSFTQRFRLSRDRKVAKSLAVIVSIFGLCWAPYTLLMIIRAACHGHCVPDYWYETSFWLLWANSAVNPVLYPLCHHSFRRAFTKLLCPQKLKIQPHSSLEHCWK
row,SMILES,pIC50
1,"Cc1cnc(C(=O)N2CC(C(=O)N3CCCN(C4CCC4)CC3)C2)cn1 [Example 9, 1-cyclobutyl-4-({1-[(5-methylpyrazin-2-yl)carbonyl]azetidin-3-yl}carbonyl)-1,4-diazepane]",> 7.30
2,"O=C(Cc1ccc(Cl)cc1)N1CC(C(=O)N2CCCN(C3CCC3)CC2)C1 [Example 54, 1-({1-[(4-chlorophenyl)acetyl]azetidin-3-yl}carbonyl)-4-cyclobutyl-1,4-diazepane]",> 7.30
3,"O=C(C1CN(S(=O)(=O)CC2CCCC2)C1)N1CCCN(C2CCC2)CC1 [Example 25, 1-cyclobutyl-4-({1-[(cyclopentylmethyl)sulfonyl]azetidin-3-yl}carbonyl)-1,4-diazepane]",> 7.30
4,"O=C(CN1CCOCC1)N1CC(C(=O)N2CCCN(C3CCC3)CC2)C1 [Example 17, 1-cyclobutyl-4-{[1-(morpholin-4-ylacetyl)azetidin-3-yl]carbonyl}-1,4-diazepane]",> 7.30
5,"O=C(c1ccc(-c2nccs2)cc1)N1CC(C(=O)N2CCCN(C3CCC3)CC2)C1 [Example 35, 1-cyclobutyl-4-[(1-{[4-(1,3-thiazol-2-yl)phenyl]carbonyl}azetidin-3-yl)carbonyl]-1,4-diazepane]",> 7.30
6,"O=C(NCC1CCOCC1)N1CC(C(=O)N2CCCN(C3CCC3)CC2)C1 [Example 57, 3-[(4-cyclobutyl-1,4-diazepan-1-yl)carbonyl]-N-(tetrahydro-2H-pyran-4-ylmethyl)azetidine-1-carboxamide]",> 7.30
7,"N#Cc1ccc(CC(=O)N2CC(C(=O)N3CCCN(C4CCC4)CC3)C2)cc1 [Example 34, 4-(2-{3-[(4-cyclobutyl-1,4-diazepan-1-yl)carbonyl]azetidin-1-yl}-2-oxoethyl)benzonitrile]",> 7.30
8,"N#Cc1ccc(OCC(=O)N2CC(C(=O)N3CCCN(C4CCC4)CC3)C2)cc1 [Example 22, 4-(2-{3-[(4-cyclobutyl-1,4-diazepan-1-yl)carbonyl]azetidin-1-yl}-2-oxoethoxy)benzonitrile]",> 7.30
9,"O=C(CC1CC1)N1CC(C(=O)N2CCCN(C3CCC3)CC2)C1 [Example 32, 1-cyclobutyl-4-{[1-(cyclopropylacetyl)azetidin-3-yl]carbonyl}-1,4-diazepane]",> 7.30
10,"Cc1ccc(C(=O)N2CC(C(=O)N3CCCN(C4CCCC4)CC3)C2)cn1 [Example 81, 1-cyclopentyl-4-({1-[(6-methylpyridin-3-yl)carbonyl]azetidin-3-yl}carbonyl)-1,4-diazepane]",> 7.30
11,"CCC(=O)N1CC(C(=O)N2CCCN(C3CCC3)CC2)C1 [Example 71, 1-cyclobutyl-4-[(1-propanoylazetidin-3-yl)carbonyl]-1,4-diazepane]",> 7.30
12,"COC(=O)c1ccc(C(=O)N2CC(C(=O)N3CCCN(C4CCC4)CC3)C2)cn1 [Example 7, methyl 5-({3-[(4-cyclobutyl-1,4-diazepan-1-yl)carbonyl]azetidin-1-yl}carbonyl)pyridine-2-carboxylate]",> 7.30
13,"CN(Cc1ccc(F)cc1)C(=O)N1CC(C(=O)N2CCCN(C3CCC3)CC2)C1 [Example 62, 3-[(4-cyclobutyl-1,4-diazepan-1-yl)carbonyl]-N-(4-fluorobenzyl)-N-methylazetidine-1-carboxamide]",> 7.30
14,"O=C(CN1CCC(F)(F)C1)N1CC(C(=O)N2CCCN(C3CCC3)CC2)C1 [Example 19, 1-cyclobutyl-4-({1-[(3,3-difluoropyrrolidin-1-yl)acetyl]azetidin-3-yl}carbonyl)-1,4-diazepane]",> 7.30
15,"N#Cc1ccc(CNC(=O)N2CC(C(=O)N3CCCN(C4CCC4)CC3)C2)cc1 [Example 66, N-(4-cyanobenzyl)-3-[(4-cyclobutyl-1,4-diazepan-1-yl)carbonyl]azetidine-1-carboxamide]",> 7.30
16,"CCN1CCCN(C(=O)C2CN(C(=O)c3ccc(C)nc3)C2)CC1 [Example 80, 1-ethyl-4-({1-[(6-methylpyridin-3-yl)carbonyl]azetidin-3-yl}carbonyl)-1,4-diazepane]",> 7.30
17,"O=C(CN1CCS(=O)(=O)CC1)N1CC(C(=O)N2CCCN(C3CCC3)CC2)C1 [Example 18, 1-cyclobutyl-4-({1-[(1,1-dioxidothiomorpholin-4-yl)acetyl]azetidin-3-yl}carbonyl)-1,4-diazepane]",> 7.30
18,"O=C(c1ccc(Cn2cncn2)cc1)N1CC(C(=O)N2CCCN(C3CCC3)CC2)C1 [Example 74, 1-cyclobutyl-4-[(1-{[4-(1H-1,2,4-triazol-1-ylmethyl)phenyl]carbonyl}azetidin-3-yl)carbonyl]-1,4-diazepane]",> 7.30
19,"O=C(OCc1ccccc1)N1CC(C(=O)N2CCCN(C3CCC3)CC2)C1 [Example 1, benzyl 3-[(4-cyclobutyl-1,4-diazepan-1-yl)carbonyl]azetidine-1-carboxylate]",> 7.30

# Second part, the compound after the results:
row,pIC50,SMILES
1,> 7.30,"N#Cc1ccc(NC(=O)N2CC(C(=O)N3CCCN(C4CCC4)CC3)C2)cc1 [Example 59, N-(4-cyanophenyl)-3-[(4-cyclobutyl-1,4-diazepan-1-yl)carbonyl]azetidine-1-carboxamide]"
2,> 7.30,"CC1(C)COC(c2ccc(C(=O)N3CC(C(=O)N4CCCN(C5CCC5)CC4)C3)cc2)=N1 [Example 42, 1-cyclobutyl-4-[(1-{[4-(4,4-dimethyl-4,5-dihydro-1,3-oxazol-2-yl)phenyl]carbonyl}azetidin-3-yl)carbonyl]-1,4-diazepane]"
3,> 7.30,"O=C(C1CN(S(=O)(=O)C2CCCCC2)C1)N1CCCN(C2CCC2)CC1 [Example 24, 1-cyclobutyl-4-{[1-(cyclohexylsulfonyl)azetidin-3-yl]carbonyl}-1,4-diazepane]"
4,> 7.30,"CC(C)c1ccc(C(=O)N2CC(C(=O)N3CCCN(C4CCC4)CC3)C2)cc1 [Example 38, 1-cyclobutyl-4-[(1-{[4-(1-methylethyl)phenyl]carbonyl}azetidin-3-yl)carbonyl]-1,4-diazepane]"
5,> 7.30,"N#Cc1ccc(C(=O)N2CC(C(=O)N3CCCN(C4CCC4)CC3)C2)cc1 [Example 6, 4-({3-[(4-cyclobutyl-1,4-diazepan-1-yl)carbonyl]azetidin-1-yl}carbonyl)benzonitrile]"
6,> 7.30,"O=C(C1CN(C(=O)N2CCCCC2)C1)N1CCCN(C2CCC2)CC1 [Example 2, 1-cyclobutyl-4-{[1-(piperidin-1-ylcarbonyl)azetidin-3-yl]carbonyl}-1,4-diazepane]"
7,> 7.30,CN(C(=O)N1CC(C(=O)N2CCCN(C3CCC3)CC2)C1)c1ccc(C#N)cc1 [Example 63]
8,5.30 to 7.00,"Cc1ccc(C(=O)N2CC(C(=O)N3CCCN(CC(C)C)CC3)C2)cn1 [Example 84, 1-(2-methylpropyl)-4-({1-[(6-methylpyridin-3-yl)carbonyl]azetidin-3-yl}carbonyl)-1,4-diazepane]"
9,> 7.30,"O=C(c1ccc(-n2cncn2)nc1)N1CC(C(=O)N2CCCN(C3CCC3)CC2)C1 [Example 13, 1-cyclobutyl-4-[(1-{[6-(1H-1,2,4-triazol-1-yl)pyridin-3-yl]carbonyl}azetidin-3-yl)carbonyl]-1,4-diazepane]"
10,> 7.30,"N#Cc1ccc(S(=O)(=O)N2CC(C(=O)N3CCCN(C4CCC4)CC3)C2)cc1 [Example 27, 4-({3-[(4-cyclobutyl-1,4-diazepan-1-yl)carbonyl]azetidin-1-yl}sulfonyl)benzonitrile]"
